# Measured values: PMC12293604, “Anticancer Effect of Nature-Inspired Indolizine-Based Pentathiepines in 2D and 3D Cellular Model” (Cancers, 2025)
# What was measured:
# MCF7 [1] = test: MTT cell viability assay, MCF7; type: cell-based; conditions: Homo sapiens, MCF7, 48h treatment, mean ± S.D.
# Method: (§1) The human cancer cell lines MCF7 (HTB-22, breast adenocarcinoma), MDA-MB-231 (HTB-26, breast adenocarcinoma), HCT116 (CCL-247, colorectal carcinoma), and A549 (CRM-CCL-185, lung carcinoma) were obtained from the American Type Culture Collection (ATCC, Manassas, VA, USA). The fibroblast cell line CR9, kindly provided by Dr. Guven, was maintained in ISCOVE medium. HCT116 cells were cultured in Dulbecco’s Modified Eagle Medium (DMEM), whereas A549, MCF7, and MDA-MB-231 cells were maintained in Roswell Park Memorial Institute 1640 (RPMI-1640) medium. All media were supplemented with 10% fetal bovine serum (FBS), 1% L-glutamine, and 0.5% antibiotic mixture (penicillin, streptomycin, and neomycin). Cell cultures were maintained at 37 °C in a humidified atmosphere with 5% CO2, following standard culture protocols. Additionally, for HCT116 cells, the culture medium was further supplemented with 1% sodium pyruvate and 1% non-essential amino acids.
# (§2) To evaluate the impact of the tested PTEs on cell viability, a colorimetric MTT assay was performed as previously described. Briefly, cells were seeded in 96-well microplates at initial densities of 5 × 10^3 cells per well for the MCF7, MDA-MB231, and A549 cell lines, and 4 × 10^3 cells per well for HCT116 cells. After an initial 24 h incubation period to allow for cell attachment and growth, the cultures were treated with different concentrations of PTEs (0.25–20 µM). Following 48 h of treatment, 50 μL of MTT solution (2 mg/mL in PBS) was added to each well, and the plates were incubated at 37 °C for 3 h to allow for MTT reduction by metabolically active cells. The resulting formazan crystals were solubilized, and cell viability was measured by recording the absorbance at 570 nm using an iMark Microplate Reader (BIORAD, Segrate, Milan, Italy). The cytotoxic effectiveness of the compounds was expressed as IC50 values, which were calculated from dose–response curves fitted with non-linear regression analysis using Calcusyn version 1.1.4. software (Biosoft, Cambridge, UK).
# A549 [2] = test: MTT cell viability assay, A549; type: cell-based; conditions: Homo sapiens, A549, 48h treatment, mean ± S.D.
# Method: as §1, §2
# HCT116 [3] = test: MTT cell viability assay, HCT116; type: cell-based; conditions: Homo sapiens, HCT-116, HCT116, 48h treatment, mean ± S.D.
# Method: as §1, §2
# MDA-MB231 [4] = test: MTT cell viability assay, MDA-MB231; type: cell-based; conditions: Homo sapiens, MDA-MB-231, MDA-MB231, 48h treatment, mean ± S.D.
# Method: as §1, §2
# MCF7 [5] = test: Cell cycle distribution, flow cytometry, MCF7; type: cell-based, human; conditions: MCF7, 48 h at equitoxic (IC50) concentrations
# Method: (§3) The potential of the tested PTE derivatives to induce apoptotic and/or necrotic cell death, as well as to cause alterations in cell cycle distribution, was evaluated following a 48 h exposure to their respective IC50 concentrations, using flow cytometric analysis as previously described. Briefly, the indicated cell lines were seeded in 12-well plates (3 × 10^5 cells/well) and treated 24 h post-seeding. At the end of the treatment period, following harvesting, cells were washed with PBS and fixed in ice-cold 70% ethanol at −20 °C for a minimum duration of 45 min, to assess apoptotic cell death and perform cell cycle analysis. After fixation, cells were washed again with PBS and stained with a propidium iodide (PI)/RNase solution (50 µg/mL PI and 30 U/mL RNase) in PBS for 15 min at room temperature.
# (§4) Flow cytometric analysis was performed using a FACScalibur flow cytometer (Becton Dickinson, Milan, Italy), equipped with a 15 mW, 488 nm air-cooled argon ion laser. Data were acquired and analyzed with CellQuestPRO version 5.1 software. PI fluorescence was detected using a 575 nm band-pass filter. The percentage of apoptotic cells was determined by identifying sub-G1 peaks in monoparametric histograms obtained in logarithmic mode. For cell cycle distribution, PI fluorescence was also analyzed with monoparametric histograms, but data were collected in linear mode.
# HCT116 [6] = test: Intracellular ROS levels (DCFH-DA), HCT116; type: cell-based, human; conditions: HCT116, 48 h at IC50 concentration, vs. CTR
# Method: (§5) Intracellular ROS levels were quantified using 2′,7′-dichlorodihydrofluorescein diacetate (DCFH-DA) as a fluorescent probe. After 48 h of treatment, cells were collected, rinsed with PBS, and incubated in a PBS solution containing 10 µM DCFH-DA. Following incubation, fluorescence corresponding to oxidized fluorescein was measured using a 530 nm band-pass filter. ROS production was expressed in arbitrary units based on the median fluorescence intensity (MFI).
# [7] = system: MCF7, MDA-MB231, A549 and HCT116 cells; test: Apoptotic cell death, flow cytometry (sub-G1, PI); type: cell-based, human; conditions: 48 h treatment at IC50 concentration, vs. untreated controls
# Method: as §3, §4
# MCF7 [8] = test: Intracellular ROS levels (DCFH-DA), MCF7; type: cell-based, human; conditions: MCF7, 48 h at IC50 concentration, vs. CTR
# Method: as §5
# A549 [9] = test: Cell cycle distribution, flow cytometry, A549; type: cell-based, human; conditions: A549, 48 h at equitoxic (IC50) concentrations
# Method: as §3, §4
# [10] = system: MCF7, MDA-MB231, A549 and HCT116 cells; test: Intracellular ROS levels (DCFH-DA), summary across cell lines; type: cell-based, human; conditions: 48 h at IC50 concentration, four cell lines
# Method: as §5
# MDA-MB231 [11] = test: Intracellular ROS levels (DCFH-DA), MDA-MB231; type: cell-based, human; conditions: MDA-MB231, 48 h at IC50 concentration, vs. CTR
# Method: as §5
# MDA-MB231 [12] = test: Cell cycle distribution, flow cytometry, MDA-MB231; type: cell-based, human; conditions: MDA-MB231, 48 h at equitoxic (IC50) concentrations
# Method: as §3, §4
# [13] = system: CR9 human fibroblast cells; test: MTT cell viability assay, CR9 fibroblasts; type: cell-based; conditions: 48h treatment, mean ± S.D.
# Method: as §1, §2
# HCT116 [14] = test: Cell cycle distribution, flow cytometry, HCT116; type: cell-based, human; conditions: HCT116, 48 h at equitoxic (IC50) concentrations
# Method: as §3, §4
# [15] = system: MCF7, MDA-MB-231, A549, and HCT116 cells; test: MTT cell viability assay, summary across the cell line panel; type: cell-based, human; conditions: 48 h treatment, across tested cell lines
# Method: The fibroblast cell line CR9, kindly provided by Dr. Guven, was maintained in ISCOVE medium. […] All media were supplemented with 10% fetal bovine serum (FBS), 1% L-glutamine, and 0.5% antibiotic mixture (penicillin, streptomycin, and neomycin). Cell cultures were maintained at 37 °C in a humidified atmosphere with 5% CO2, following standard culture protocols. Additionally, for HCT116 cells, the culture medium was further supplemented with 1% sodium pyruvate and 1% non-essential amino acids.
# as §2, with “Following 48 h of treatment, 50 μL of MTT solution (2 mg/mL in PBS) was added to each well, and the plates were incubated at 37 °C for 3 h to allow for MTT reduction by metabolically active cells.” left out
# [16] = system: MCF7, MDA-MB231, A549 and HCT116 cell lines; test: Hydrosulfide production (DNS-N3 probe), summary across cell lines; type: cell-based, human; conditions: 48 h at IC50 concentration, all cell lines
# Method: (§6) PTEs-induced sulfide production was evaluated using dansyl azide (DNS-N3) as a probe. DNS-N3 is non-fluorescent itself, while in the presence of hydrosulfide, the azide transforms into the dansyl amide and fluorescence is switched on. After 48 h of treatment, cells were harvested, washed with PBS, and incubated in a PBS solution containing 200 μM DNS-N3. Following 30 min incubation at 37 °C, fluorescence increase was measured through a 575 nm band-pass filter. The levels of hydrosulfide production were assessed and reported in arbitrary units, calculated from the median fluorescence intensity (MFI) measurements. For all flow cytometric analyses, untreated cells (i.e., not exposed to PTE compounds) were used as negative controls.
# HCT116 [17] = test: Necrotic cell death, flow cytometry (PI without fixation), HCT116; type: cell-based, human; conditions: HCT116, 48 h treatment at IC50 concentration
# Method: as §3, §4
# Necrotic cell death was assessed by omitting the ethanol fixation step from the staining protocol, thereby enabling propidium iodide (PI) to penetrate membrane-compromised cells, indicative of necrosis.
# HCT116 [18] = test: Hydrosulfide production (DNS-N3 probe), HCT116; type: cell-based, human; conditions: HCT116, 48 h at IC50 concentration
# Method: as §6
IC50 (MCF7 [1]) [nM],IC50 (A549 [2]) [nM],IC50 (HCT116 [3]) [nM],IC50 (MDA-MB231 [4]) [nM],Compound,cell cycle shift: decrease in the G0/G1 phase population with G2/M phase accumulation (MCF7 [5]),increase in ROS production (HCT116 [6]),apoptotic cell death [7],increase in ROS production (MCF7 [8]),cell cycle shift: decrease in the G0/G1 phase population with G2/M phase accumulation (A549 [9]),ROS production (ranking in words) [10],increase in ROS production (MDA-MB231 [11]),cell cycle shift: decrease in the G0/G1 phase population with G2/M phase accumulation (MDA-MB231 [12]),IC50 [13] [nM],cell cycle shift: decrease in the G0/G1 phase population with G2/M phase accumulation (HCT116 [14]),cytotoxic potency (in words) [15],sulfide production (in words) [16],necrosis relative to apoptosis (HCT116 [17]),sulfide increase (HCT116 [18]),cytotoxic potency (in words) ([15]; listed as 2^PG),cytotoxic potency (in words) ([15]; listed as 2^Ph)
4500 ± 510,1500 ± 210,3500 ± 600,17800 ± 1960,"COc1cccc2c1C(=O)c1c(O)c3c(c(O)c1C2=O)C[C@@](O)(C(=O)CO)C[C@@H]3O[C@H]1C[C@H](N)[C@H](O)[C@H](C)O1 [doxo, doxorubicin, reference compound]",–,–,–,–,–,–,–,–,–,–,–,–,–,–,–,–
2680 ± 310,1540 ± 80,830 ± 40,630 ± 40,CCOc1c2c(c3ccccn13)SSSSS2 [compound 1],induced this characteristic cell cycle shift,statistically significant,most potent inducers of apoptosis,statistically significant,induced this characteristic cell cycle shift,better ROS producers,statistically significant,induced this characteristic cell cycle shift,7320 ± 150,induced this characteristic cell cycle shift,noteworthy efficacy,most potent inducers of sulfide production,–,–,–,–
4770 ± 140,2540 ± 270,2270 ± 340,1450 ± 40,Cc1c2c(c3ccccn13)SSSSS2 [2^Me],–,–,most potent inducers of apoptosis,statistically significant,–,better ROS producers,statistically significant,triggered similar effects,7910 ± 320,triggered similar effects,noteworthy efficacy,most potent inducers of sulfide production,higher levels of necrosis relative to apoptosis,did not induce sulfide increase,highest cytotoxic potency,lowest cytotoxic activity
1130 ± 20,790 ± 60,603 ± 40,300 ± 30,OCCOc1c2c(c3ccccn13)SSSSS2 [2^Gly],–,–,most potent inducers of apoptosis,–,–,better ROS producers,statistically significant,triggered similar effects,1610 ± 130,triggered similar effects,highest cytotoxic potency,most potent inducers of sulfide production,higher levels of necrosis relative to apoptosis,–,–,–
3210 ± 130,3220 ± 390,1590 ± 150,630 ± 750,CCOc1c2c(c3ccc([N+](=O)[O-])cn13)SSSSS2 [3^NO2],–,–,most potent inducers of apoptosis,statistically significant,–,–,statistically significant,–,2870 ± 140,–,noteworthy efficacy,–,–,–,–,–
1700 ± 30,1030 ± 40,740 ± 60,390 ± 40,"CCOc1c2c(c3ccc(C=O)cn13)SSSSS2 [3^CHO, 6-ethoxy-9-formyl-[1,2,3,4,5]pentathiepino [6,7-a]indolizine]",–,–,most potent inducers of apoptosis,statistically significant,–,better ROS producers,statistically significant,exerted this effect exclusively in MDA-MB231 cells,1900 ± 120,–,highest cytotoxic potency,most potent inducers of sulfide production,higher levels of necrosis relative to apoptosis,–,–,–
